Results as given in US20220273799A1, “DRUG DELIVERY COMPOSITION, METHOD FORMING THE SAME AND METHOD FOR TREATING INNER EAR DISORDERS” (National Taiwan University of Science and Technology, priority 2021, published 2022).

Experiment: DEX concentration in cochlear perilymph after intratympanic injection
Type: in vivo, guinea pig
Protocol: (1) Preparation of guinea pig models: The guinea pig model used in this example is the pigmented guinea pig model. The surgical anesthesia is given by intramuscular injection of ketamine HCl (40 mg per kg guinea pig body weight). The remaining injections are muscle relaxant Rompun® (Xylazine)(10 mg/kg guinea pig body weight), prophylactic antibiotic chloramphenicol sodium succinate (30 mg/kg guinea pig body weight), and local anesthetic Lidocaine HCl (1%, 0.5 mL).
(2) Preparation for the Guinea pig surgery and the experiment: The surgery is carried out by intratympanic injection. The guinea pig is anesthetized and operated under a dissecting surgical microscope after confirmation. A 22G needle is used to puncture the eardrum, and 200 μL of the temperature-sensitive microbubbles drug (DEX) hydrogel of the present disclosure is applied into the middle ear cavity. The experiments are performed in the ultrasound microbubble treatment group (USM), round window soaking group (RWS), and the group treated with DEX only without MBs (DEX only without MBs). The groups are as follows: USM group is injected with the temperature-sensitive microbubbles drug hydrogel at 3W energy for 1 minute. […] The concentrations of DEX are measured in the cochlear perilymph of guinea pigs on day 1 and day 7 after injection.

Q: With `C[C@@H]1C[C@H]2[C@@H]3CCC4=CC(=O)C=C[C@]4(C)[C@@]3(F)[C@@H](O)C[C@]2(C)[C@@]1(O)C(=O)CO` [DEX only without MBs, dexamethasone] as the compound, how does the “DEX concentration in cochlear perilymph” value (day 1 after injection, DEX only without MBs group) read?
A: Its value is “about 17.38±2.51 μg/mL”.

Q: What about the “DEX concentration in cochlear perilymph” value (day 7 after injection, DEX only group) of the same compound?
A: Its value is under 3 ng/mL.
